From patent US9643999B2 (Bristol-Myers Squibb Company, priority 2012, dated 2017)

What was measured:
HCV genotype 1b replicon = test: HCV replicon luciferase reporter assay, genotype 1b (LE_1b); type: cell-based; conditions: Hepatitis C virus, 72 h; HUH-7 cells, genotype 1b (Con1) replicon, 3 days incubation, Renilla luciferase; read-out: LE_1b (EC50, range)
Text: An HCV replicon whole cell system was established as described by Lohmann V, Korner F, Koch J, Herian U, Theilmann L, Bartenschlager R., Science 285(5424):110-3 (1999) and modified to introduce a luciferase reporter, as first described by Krieger et al (Krieger N, Lohmann V, and Bartenschlager R, J. Virol. 75(10):4614-4624 (2001)). cDNA encoding a humanized form of the Renilla luciferase gene and a linker sequence fused directly to the 3′-end of the luciferase gene were introduced into the replicon construct using an Asc1 restriction site located in core, directly upstream of the neomycin marker gene. The adaptive mutation at position 1179 (serine to isoleucine) was also introduced (Blight K J, Kolykhalov, A A, Rice, C M, Science 290(5498):1972-1974). A stable cell line constitutively expressing this HCV replicon construct was generated by first linearizing plasmid DNAs with ScaI. RNA transcripts were synthesized in vitro using the T7 MegaScript transcription kit (Ambion, Austin, Tex.) according to manufacturer's directions. In vitro transcripts of the cDNA were transfected into the human hepatoma cell line, HUH-7. […] Resulting cell lines were characterized for positive and negative strand RNA production and protein production over time. […]
(§1) HCV replicon luciferase assays were developed to monitor the inhibitory effects of compounds described in the disclosure on HCV genotypes 1a and 1b viral replication. HUH-7 cells, constitutively expressing the HCV replicon, were grown in Dulbecco's Modified Eagle Media (DMEM) (Gibco-BRL) containing 10% Fetal calf serum (FCS) (Sigma) and 1 mg/mL G418 (Gibco-BRL). Compounds were serially diluted 3 folds in DMSO for a twenty-point titration and subsequently transferred to sterile 384-well tissue-culture treated plates (Corning cat #3571). The plates were then seeded with 50 μL of cells at a density of 3.0×10^3 cells/well in DMEM containing 4% FCS (final DMSO concentration at 0.5%). After 3 days incubation at 37° C., cells were analyzed for Renilla Luciferase activity using the EnduRen as substrate (Promega cat #E6485). The EnduRen substrate was diluted in DMEM and then added to the plates to a final concentration of 7.5 μM. The plates were incubated for 2 hrs at 37° C. and then read immediately for 30 seconds with Viewlux Imager (PerkinElmer) using a luminescence program. To assess cytotoxicity of compounds, CC50 values were generated by multiplexing the EnduRen-containing plates with Cell Titer-Blue (Promega, cat #G8082). Cell-Titer Blue (3 μL) was added to each well and incubated for 8 hrs at 37° C. The fluorescence signal from each well was read, with an excitation wavelength at 525/10 nm and an emission wavelength of 598/10 nm, using the Viewlux Imager.
(§2) The EC50 values for compounds were calculated by using a four-parameter logistic equation: y=A+((B−A)/(1+((C/x)^D))), where A and B denotes minimal and maximal % inhibition, respectively, C is the EC50, D is the hill slope and x represents compound concentration.

HCV genotype 1a replicon = test: HCV replicon luciferase reporter assay, genotype 1a (LE_1a); type: cell-based; conditions: Hepatitis C virus, 72 h; HUH-7 cells, genotype 1a H77 replicon, 3 days incubation, Renilla luciferase; read-out: LE_1a (EC50, range)
Text: An HCV replicon whole cell system was established as described by Lohmann V, Korner F, Koch J, Herian U, Theilmann L, Bartenschlager R., Science 285(5424):110-3 (1999) and modified to introduce a luciferase reporter, as first described by Krieger et al (Krieger N, Lohmann V, and Bartenschlager R, J. Virol. 75(10):4614-4624 (2001)). cDNA encoding a humanized form of the Renilla luciferase gene and a linker sequence fused directly to the 3′-end of the luciferase gene were introduced into the replicon construct using an Asc1 restriction site located in core, directly upstream of the neomycin marker gene. The adaptive mutation at position 1179 (serine to isoleucine) was also introduced (Blight K J, Kolykhalov, A A, Rice, C M, Science 290(5498):1972-1974). A stable cell line constitutively expressing this HCV replicon construct was generated by first linearizing plasmid DNAs with ScaI. RNA transcripts were synthesized in vitro using the T7 MegaScript transcription kit (Ambion, Austin, Tex.) according to manufacturer's directions. In vitro transcripts of the cDNA were transfected into the human hepatoma cell line, HUH-7. […] Resulting cell lines were characterized for positive and negative strand RNA production and protein production over time.
A stable HCV replicon luciferase reporter cell line representing the genotype 1a H77 strain (Yanagi M, Purcell R H, Emerson S U, et al. Transcripts from a single full-length cDNA clone of hepatitis C virus are infectious when directly transfected into the liver of a chimpanzee. Proc Natl Acad Sci USA 1997; 94(16):8738-8743) was generated as described previously for the genotype 1b(Con1) replicon luciferase cell line. The replicon construct was modified by introducing mutations were introduced into the genes encoding the NS3 helicase domain (proline replaced by leucine at position 1496) and NS5A (serine to isoleucine at position 2204) to improve replication in cell culture.
as §1, §2

Row | SMILES | EC50 (HCV genotype 1b replicon) | EC50 (HCV genotype 1a replicon)
1 | CC[C@@H]1C[C@H](C)CC/C=C\[C@@H]2C[C@@]2(C(=O)NS(=O)(=O)C2(C)CC2)NC(=O)[C@@H]2C[C@@H](Oc3ncc(N(C)C(=O)c4ccccc4)c4cc(OC)ccc34)CN2C(=O)[C@H]1NC(=O)OC(C)(C)C(F)(F)F [Compound 4248] | 1.01 to 5 nM | 1.01 to 5 nM
2 | CC[C@@H]1C[C@H](C)CC/C=C\[C@@H]2C[C@@]2(C(=O)NS(=O)(=O)C2(C)CC2)NC(=O)[C@@H]2C[C@@H](Oc3ncc(-c4nccs4)c4cc(OC)ccc34)CN2C(=O)[C@H]1NC(=O)OC(C)(C)C [Compound 4255, tert-butyl((2R,6S,7R,9R,13aS,14aR,16aS,Z)-7-ethyl-2-((6-methoxy-4-(thiazol-2-yl)isoquinolin-1-yl)oxy)-9-methyl-14a-(((1-methylcyclopropyl)sulfonyl)carbamoyl)-5,16-dioxo-1,2,3,5,6,7,8,9,10,11,13a,14,14a,15,16,16a-hexadecahydrocyclopropa[e]pyrrolo[1,2-a][1,4]diazacyclopentadecin-6-yl)carbamate] | 0.51 to 1 nM | 1.01 to 5 nM
3 | CC[C@@H]1C[C@H](C)CC/C=C\[C@@H]2C[C@@]2(C(=O)NS(=O)(=O)C2(C)CC2)NC(=O)[C@@H]2C[C@@H](Oc3ncc(-c4nccs4)c4cc(OC)ccc34)CN2C(=O)[C@H]1NC(=O)OC(C)(C)C(F)(F)F [Compound 4258] | 1.01 to 5 nM | 1.01 to 5 nM
4 | CC[C@@H]1C[C@H](C)CC/C=C\[C@@H]2C[C@@]2(C(=O)NS(=O)(=O)C2(C)CC2)NC(=O)[C@@H]2C[C@@H](Oc3ncc(N(CC)C(=O)c4ccccc4)c4cc(OC)ccc34)CN2C(=O)[C@H]1NC(=O)OC(C)(C)C(F)(F)F [Compound 4264] | 1.01 to 5 nM | 1.01 to 5 nM
5 | CC[C@@H]1C[C@H](C)CC/C=C\[C@@H]2C[C@@]2(C(=O)NS(=O)(=O)C2(C)CC2)NC(=O)[C@@H]2C[C@@H](Oc3ncc(-c4nc(C(C)(C)C)cs4)c4cc(OC)ccc34)CN2C(=O)[C@H]1NC(=O)OC(C)(C)C [Compound 4274, tert-butyl((2R,6S,7R,9R,13aS,14aR,16aS,Z)-2-((4-(4-(tert-butyl)thiazol-2-yl)-6-methoxyisoquinolin-1-yl)oxy)-7-ethyl-9-methyl-14a-(((1-methylcyclopropyl)sulfonyl)carbamoyl)-5,16-dioxo-1,2,3,5,6,7,8,9,10,11,13a,14,14a,15,16,16a-hexadecahydrocyclopropa[e]pyrrolo[1,2-a][1,4]diazacyclopentadecin-6-yl)carbamate] | 1.01 to 5 nM | 5.01 to 35 nM
6 | CC[C@@H]1C[C@H](C)CC/C=C\[C@@H]2C[C@@]2(C(=O)NS(=O)(=O)C2(C)CC2)NC(=O)[C@@H]2C[C@@H](Oc3ncc(-c4nc(C(C)(C)C)cs4)c4cc(OC)ccc34)CN2C(=O)[C@H]1NC(=O)OC(C)(C)C(F)(F)F [Compound 4275] | 5.01 to 35 nM | 5.01 to 35 nM
7 | CC[C@@H]1C[C@H](C)CC/C=C\[C@@H]2C[C@@]2(C(=O)NS(=O)(=O)C2CC2)NC(=O)[C@@H]2C[C@@H](Oc3ncc(-c4nc(C(C)(C)C)cs4)c4cc(OC)ccc34)CN2C(=O)[C@H]1NC(=O)OC(C)(C)C [Compound 4280, tert-butyl((2R,6S,7R,9R,13aS,14aR,16aS,Z)-2-((4-(4-(tert-butyl)thiazol-2-yl)-6-methoxyisoquinolin-1-yl)oxy)-14a-((cyclopropylsulfonyl)carbamoyl)-7-ethyl-9-methyl-5,16-dioxo-1,2,3,5,6,7,8,9,10,11,13a,14,14a,15,16,16a-hexadecahydrocyclopropa[e]pyrrolo[1,2-a][1,4]diazacyclopentadecin-6-yl)carbamate] | 1.01 to 5 nM | 5.01 to 35 nM
8 | CC[C@@H]1C[C@H](C)CC/C=C\[C@@H]2C[C@@]2(C(=O)NS(=O)(=O)C2(C)CC2)NC(=O)[C@@H]2C[C@@H](Oc3cc(-n4ccnc4)nc4cc(OC)ccc34)CN2C(=O)[C@H]1NC(=O)OC(C)(C)C(F)(F)F [Compound 4281] | 5.01 to 35 nM | 5.01 to 35 nM
9 | CC[C@@H]1C[C@H](C)CC/C=C\[C@@H]2C[C@@]2(C(=O)NS(=O)(=O)C2(C)CC2)NC(=O)[C@@H]2C[C@@H](Oc3cc(-n4ccnc4)c4ccc(OC)cc4n3)CN2C(=O)[C@H]1NC(=O)OC(C)(C)C(F)(F)F [Compound 4282] | 1.01 to 5 nM | 5.01 to 35 nM
10 | CC[C@@H]1C[C@H](C)CC/C=C\[C@@H]2C[C@@]2(C(=O)NS(=O)(=O)C2(C)CC2)NC(=O)[C@@H]2C[C@@H](Oc3ncc(-c4cnco4)c4cc(OC)ccc34)CN2C(=O)[C@H]1NC(=O)OC(C)(C)C [Compound 4285, tert-butyl((2R,6S,7R,9R,13aS,14aR,16aS,Z)-7-ethyl-2-((6-methoxy-4-(oxazol-5-yl)isoquinolin-1-yl)oxy)-9-methyl-14a-(((1-methylcyclopropyl)sulfonyl)carbamoyl)-5,16-dioxo-1,2,3,5,6,7,8,9,10,11,13a,14,14a,15,16,16a-hexadecahydrocyclopropa[e]pyrrolo[1,2-a][1,4]diazacyclopentadecin-6-yl)carbamate] | 1.01 to 5 nM | 1.01 to 5 nM
11 | CC[C@@H]1C[C@H](C)CC/C=C\[C@@H]2C[C@@]2(C(=O)NS(=O)(=O)C2CC2)NC(=O)[C@@H]2C[C@@H](Oc3ncc(C(=O)OC)c4cc(OC)ccc34)CN2C(=O)[C@H]1NC(=O)OC(C)(C)C(F)(F)F [Compound 4286, methyl 1-(((2R,6S,7R,9R,13aS,14aR,16aS,Z)-14a-((cyclopropylsulfonyl)carbamoyl)-7-ethyl-9-methyl-5,16-dioxo-6-((((1,1,1-trifluoro-2-methylpropan-2-yl)oxy)carbonyl)amino)-1,2,3,5,6,7,8,9,10,11,13a,14,14a,15,16,16a-hexadecahydrocyclopropa[e]pyrrolo[1,2-a][1,4]diazacyclopentadecin-2-yl)oxy)-6-methoxyisoquinoline-4-carboxylate] | 0.51 to 1 nM | 1.01 to 5 nM
12 | CC[C@@H]1C[C@H](C)CC/C=C\[C@@H]2C[C@@]2(C(=O)NS(=O)(=O)C2(C)CC2)NC(=O)[C@@H]2C[C@@H](Oc3ncc(C(=O)OC)c4cc(OC)ccc34)CN2C(=O)[C@H]1NC(=O)OC(C)(C)C(F)(F)F [Compound 4287] | 1.01 to 5 nM | 1.01 to 5 nM
13 | CC[C@@H]1C[C@H](C)CC/C=C\[C@@H]2C[C@@]2(C(=O)NS(=O)(=O)C2CC2)NC(=O)[C@@H]2C[C@@H](Oc3ncc(-c4nc(C(C)(C)C)cs4)c4cc(OC)ccc34)CN2C(=O)[C@H]1NC(=O)OC(C)(C)C(F)(F)F [Compound 4288] | 5.01 to 35 nM | 5.01 to 35 nM
14 | CC[C@@H]1C[C@H](C)CC/C=C\[C@@H]2C[C@@]2(C(=O)NS(=O)(=O)C2(C)CC2)NC(=O)[C@@H]2C[C@@H](Oc3ncc(-c4cnco4)c4cc(OC)ccc34)CN2C(=O)[C@H]1NC(=O)OC(C)(C)C(F)(F)F [Compound 4291] | 0.51 to 1 nM | 1.01 to 5 nM
15 | CC[C@@H]1C[C@H](C)CC/C=C\[C@@H]2C[C@@]2(C(=O)NS(=O)(=O)C2CC2)NC(=O)[C@@H]2C[C@@H](Oc3ncc(-c4cnco4)c4cc(OC)ccc34)CN2C(=O)[C@H]1NC(=O)OC(C)(C)C(F)(F)F [Compound 4293] | 0.51 to 1 nM | 1.01 to 5 nM
